Patent US12533389B2, “Glycopeptide antibiotic combination therapy” (The Trustees of Princeton University, priority 2021, dated 2026)
Converted amounts (≈) assume the structure as drawn. Where two headings read alike, the source gives them in different places.

Columns and labels:
C. difficile P8 [1] = assay: MIC by agar dilution method (CLSI); format: cell-based, Clostridium difficile
Protocol: Minimal inhibitory concentrations (MICs) were determined by the agar dilution method following the guidelines of the Clinical and Laboratory Standards Institute (CLSI). […] The effect of vancomycin in combination with keratinicyclin B against C. difficile P8 was assessed by the checkerboard agar dilution method. […] The antibiotic agar plates were prereduced in an anaerobic container prior to inoculation. […] To avoid the selection of an atypical variant, five colonies were suspended in prereduced Gifu anaerobic broth and grown to a density equivalent to a 0.5 McFarland standard (1-2×10^8 cfu/mL). […] After incubating anaerobically at 37° C. for 48 h, the plates were inspected for bacterial growth. The MIC was defined as the lowest concentration of antibiotic leading to no growth, one colony, or a fine haze.

[2] = system: Nα,Nε-diacetyl-L-Lys-D-Ala-D-Ala tripeptide; assay: Isothermal titration calorimetry (ITC) equilibrium binding of GPAs to the tripeptide ligand; conditions: for ΔG: Experiment (ITC)
selected gut bacteria = assay: Antimicrobial susceptibility profile of selected gut bacteria; format: cell-based
[3] = system: Clostridium perfringens, Strain WAL-14572; format: cell-based; conditions: drug alone
[4] = system: Clostridium difficile, Strain P8; assay: Antimicrobial susceptibility profile of selected gut bacteria; format: cell-based; conditions: drug alone
[5] = system: Ruminococcus lactaris, Strain CC59_002D, HM-1057; assay: as above; format: cell-based; conditions: drug alone
C. difficile P8 [6] = assay: Checkerboard agar dilution of vancomycin in combination with keratinicyclin B; format: cell-based, Clostridium difficile
Protocol: Minimal inhibitory concentrations (MICs) were determined by the agar dilution method following the guidelines of the Clinical and Laboratory Standards Institute (CLSI). […] The effect of vancomycin in combination with keratinicyclin B against C. difficile P8 was assessed by the checkerboard agar dilution method. […] The antibiotic agar plates were prereduced in an anaerobic container prior to inoculation. […] To avoid the selection of an atypical variant, five colonies were suspended in prereduced Gifu anaerobic broth and grown to a density equivalent to a 0.5 McFarland standard (1-2×10^8 cfu/mL). Once the appropriate cell density was reached, the prereduced antibiotic agar plates were inoculated (10^5 cfu/spot). After incubating anaerobically at 37° C. for 48 h, the plates were inspected for bacterial growth. The MIC was defined as the lowest concentration of antibiotic leading to no growth, one colony, or a fine haze. […] The combination effect was defined as synergistic when ΣFIC≤0.5, additive when 0.5<ΣFIC≤1, indifferent when 1<ΣFIC≤2, and antagonistic when ΣFIC>2.

C. difficile = conditions: cited from earlier work
tripeptide ligand = conditions: cited from earlier work
[7] = system: diverse Gram-positive bacteria; conditions: cited from earlier work
C. difficile infection = conditions: compared to metronidazole and vancomycin; cited from earlier work
[8] = ITC, 25° C., 0.1 M sodium phosphate buffer, pH 7

`CN[C@H](CC(C)C)C(=O)N[C@H]1C(=O)N[C@@H](CC(N)=O)C(=O)N[C@H]2C(=O)N[C@H]3C(=O)N[C@H](C(=O)N[C@H](C(=O)O)c4cc(O)cc(O)c4-c4cc3ccc4O)[C@H](O)c3ccc(c(Cl)c3)Oc3cc2cc(c3O[C@@H]2O[C@H](CO)[C@@H](O)[C@H](O)[C@H]2O[C@H]2C[C@](C)(N)[C@H](O)[C@H](C)O2)Oc2ccc(cc2Cl)[C@H]1O` [vancomycin] gave an MIC (C. difficile P8 [1]; Clostridioides difficile, P8, 48 h) of 1 µg/mL, a ΔG [2] of -7.6 kcal/mol and a Kd [2, 8] of 2.7 ± 0.4 µM. For the same compound, the TΔS ([2]; ITC, 25° C., pH 7) was -0.96 kcal/mol, the ΔH ([2]; ITC, 25° C., pH 7) was -8.6 ± 0.5 kcal/mol and the “spectrum of antibacterial activity” value (selected gut bacteria) was “broad-spectrum antibacterial activity against all tested Gram-positive bacteria”.

In the case of `CO[C@H]1[C@H](C)O[C@@H](O[C@@H]2c3ccc(c(Cl)c3)Oc3cc4cc(c3O[C@@H]3O[C@H](CO)[C@@H](O)[C@H](O)[C@H]3O[C@H]3C[C@H](N)[C@@H](O)[C@H](C)O3)Oc3ccc(cc3)[C@H]3OC(=O)N[C@H]3C(=O)N[C@@H](Cc3ccccc3)C(=O)N[C@H]4C(=O)N[C@H]3C(=O)N[C@@H]2C(=O)N[C@H](C(=O)O)c2cc(O)cc(O[C@H]4O[C@H](CO)[C@@H](O)[C@H](O)[C@@H]4O)c2-c2cc3ccc2O)C[C@@H]1N` [keratinicyclin B], the MIC (C. difficile P8 [1]; alone, anaerobic, 37° C., 48 h) is reported as 4 µg/mL, the “binding of the tripeptide” value ([2]; ITC, several concentrations tested) is reported as “did not bind the tripeptide” and the Kd ([2]; ITC, estimated based on the sensitivity of the setup) is reported as greater than 500 µM. The growth inhibition [3] was “inhibiting the growth”, the growth inhibition [4] was “inhibiting the growth” and the “spectrum of antibacterial activity” value (selected gut bacteria; each drug alone, FIG. 5) was “narrower spectrum of antibiotic activity”. The growth inhibition [5] was “inhibiting the growth”, the Checkerboard analysis result (C. difficile P8 [6]; keratinicyclin B 4 μg/mL + vancomycin 0 μg/mL) was “I (I = indifference)” and the Checkerboard analysis result (C. difficile P8 [6]; keratinicyclin B 8 μg/mL + vancomycin 0 μg/mL) was “I (I = indifference)”. The “minimal inhibitory concentration (MIC)” value (C. difficile; previous bioactivity data) was 9.8 µM (≈ 16.1 µg/mL) and the spectrum of activity (C. difficile; previously shown) was “narrow-spectrum activity against C. difficile”.

Compound keratinimicin C has a Kd [2, 8] of 2.8 ± 0.3 µM, a TΔS ([2]; ITC, 25° C., pH 7) of 0.2 kcal/mol and a ΔH ([2]; ITC, 25° C., pH 7) of -7.4 ± 0.3 kcal/mol.

For `C[C@@H]1O[C@@H](O[C@H]2[C@H](Oc3c4cc5cc3Oc3ccc(cc3Cl)[C@@H](O)[C@@H](N)C(=O)N[C@@H](CC(N)=O)C(=O)N[C@H]5C(=O)N[C@H]3C(=O)N[C@H](C(=O)N[C@H](C(=O)O)c5cc(O)cc(O)c5-c5cc3ccc5O)[C@H](O)c3ccc(c(Cl)c3)O4)O[C@H](CO)[C@@H](O)[C@@H]2O)C[C@](C)(N)[C@@H]1O` [desleucyl-1], the Kd (tripeptide ligand; Experiment section of Table 2, reported value) is listed as roughly 20000 µM, the “binding of the tripeptide ligand” value (tripeptide ligand; N-terminal N-Me-D-Leu removed by Edman degradation) is listed as “does not bind the tripeptide ligand” and the Kd (tripeptide ligand; reported experimental value) is listed as roughly 20000 µM.

In the case of keratinimicin A, the ΔG [2] is reported as -7.9 kcal/mol, the TΔS ([2]; ITC, 25° C., pH 7) is reported as 0.85 kcal/mol and the Kd ([2]; ITC, 25° C., pH 7, unit inferred) is reported as 1.7 ± 0.3 µM. The spectrum of activity [7] was “broad-spectrum activity against diverse Gram-positive bacteria”.

In the case of `CCc1c(Cl)c(O)c(Cl)c(O)c1C(=O)O[C@H]1[C@H](O)[C@H](OC)[C@H](OC/C2=C\C=C\C[C@H](O)/C(C)=C/[C@H](CC)[C@@H](O[C@@H]3OC(C)(C)[C@@H](OC(=O)C(C)C)[C@H](O)[C@@H]3O)/C(C)=C/C(C)=C/C[C@@H]([C@@H](C)O)OC2=O)O[C@@H]1C` [fidaxomicin], the recurrence rates (C. difficile infection) is listed as “halves recurrence rates”.
